The subject of data set [1] is E. coli DH5α. The experiment in a line: Antimicrobial broth dilution assay. For orientation: Dilution methods test growth across graded concentrations, often in twofold steps.
A further data set concerns E. coli C600. The experiment in a line: Antimicrobial broth dilution assay. As to conditions: MTT.
Another data set concerns E. coli ΔompC, ΔompF. The data set can be described thus: Broth dilution assay against OmpC and OmpF knockouts.
Data set [2] deals with evolved turnercyclamycin B-resistant E. coli DH5α. The experiment in a line: Broth dilution assay against evolved resistant strains.
The next data set relates to Yersinia pestis. As to conditions: cited from earlier work.
The next data set deals with pBR322 in DH5α. The experiment in a line: Antimicrobial broth dilution assay, empty vector control. As to conditions: MTT.
Data set [3] has as its system Keio E. coli mlaA knockouts (ΔmlaA). The experiment in a line: Broth dilution assay against Keio mlaA knockouts. The conditions noted are these: triplicate, three biological replicates.
In another data set the test system is A. baylyi ADP1 ΔpldA. The experiment in a line: Broth dilution assay against pldA knockout. The conditions noted are these: Fig. S4.
Another data set relates to pGDP2-MCR-1 in C600. The experiment in a line: Antibiotic susceptibility testing of MCR-1-expressing E. coli. As to conditions: broth dilution, MTT.
The subject of data set [4] is A. baumannii AB5075UW ΔlpxC::ISAbaI. The data set can be described thus: Broth dilution assay against LpxC-deficient mutant. The conditions noted are these: MIC90 ΔlpxC vs WT 5075UW, Fig. 2A.
Data set [5] concerns A. baumannii Tn26-mlaA insertion strains AB8497, AB8498, AB8499. The data set can be described thus: Broth dilution assay against mlaA transposon mutants. As to conditions: for sensitivity of the mlaA mutants in comparison to the wild type: AB8497, AB8498, AB8499; for change of MIC90 against AB8497 versus wild type: mlaA insertion at position 132, twofold dilutions from 20 µg/mL; for change of MIC90 against AB8497 versus wild type / change of MIC90 against AB8499 versus wild type: 10 µg/mL tetracycline; for change of MIC90 against AB8499 versus wild type: mlaA insertion at position 507.

The next data set concerns pGDP2-MCR-1 in DH5α. The data set can be described thus: Antibiotic susceptibility testing of MCR-1-expressing E. coli.
Another data set relates to pBR322 in C600. The data set can be described thus: Antimicrobial broth dilution assay, empty vector control. The conditions noted are these: MTT.
In data set [6] the test system is E. coli DH5α. The experiment in a line: Evolution of turnercyclamycin-resistant E. coli by sublethal dose passaging. The conditions noted are these: for time of exposure to reach 32× the original MIC90: daily serial passaging, up to 63 d.
The nature of the next data set: Pharmacokinetics in mice. The format is in vivo. As to conditions: 5mg/kg IV, plasma, LC-MS/MS. As to the method:
Eurofins used mice from BioLASCO Taiwan.
Protocols were performed at Eurofins (Taiwan). Turnercyclamycin A in plasma was measured by liquid chromatography-tandem mass spectrometry, and graphs illustrating the mean plasma concentrations (mean ± SD) over time were generated. PK parameters were obtained using non-compartmental analysis of the plasma data with WinNonlin.

The mark [7] stands for this setting: female, BALB/c, mouse, mice, non-compartmental analysis.

Here are results for 4 compounds from publication PMC10714751 (Microbiology Spectrum, 2023).

Values after ≈ are worked out from the molar mass of the structure shown. Starred links: 1 amine or outer side, 2 acyl side, 3 side chain; linkers in the order of their positions; H or OH if unused. Positions of bridges follow the written chain, without caps; N, C: chain ends. Non-standard residues stand in square brackets, D forms with d. Residues, ends and D or L forms follow the SMILES beside them. *: point of attachment. dAsp(3R-OH) = N[C@@H](C(=O)O)[C@@H](O)C(=O)O; Palmitoleoyl = CCCCCC/C=C\CCCCCCCC(=O)*; X1 = NC[C@H](O)[C@@H](N[*:1])C(=O)[*:2]; X2 = CCC(C)(O)[C@H](N[*:1])C(=O)[*:2]; d(aIle) = CC[C@H](C)[C@@H](N)C(=O)O; d(aThr) = C[C@@H](O)[C@@H](N)C(=O)O; Myristoyl = CCCCCCCCCCCCCC(=O)*; dOrn = NCCC[C@@H](N)C(=O)O; X3 = CC[C@H](C)CCCCC(=O)*; hSer = N[C@@H](CCO)C(=O)O; Dab = NCC[C@H](N)C(=O)O

One may read the MIC90 as the lowest concentration that inhibits either 90% of growth or 90% of the strains tested, depending on the study. Consider `CC[C@H](C)CCCCC(=O)N[C@@H](CCN)C(=O)N[C@H](C(=O)N[C@@H](CCN)C(=O)N[C@H]1CCNC(=O)[C@H]([C@@H](C)O)NC(=O)[C@H](CCN)NC(=O)[C@H](CCN)NC(=O)[C@H](CC(C)C)NC(=O)[C@@H](CC(C)C)NC(=O)[C@H](CCN)NC1=O)[C@@H](C)O` [Colistin, colistin (polymyxin E)] (X3-[Dab]T[Dab][Dab][Dab][dL]L[Dab][Dab]T; lactam 4-C), for which the MIC90 is 0.5 µg/mL (≈ 0.428 µM) in the data set on E. coli DH5α [1] (DH5α WT (Table 2)); 0.5 µg/mL (≈ 0.428 µM) in the data set with E. coli DH5α [1] (text summary: both E. coli parent and vector-control strains (DH5α and C600)); 0.5 µg/mL (≈ 0.428 µM) in the data set with E. coli C600; 0.5 µg/mL (≈ 0.428 µM) in data set [2] (Strain 1); 0.5 µg/mL (≈ 0.428 µM) in data set [2] (Strain 2 (found contaminated with Staphylococcus)); 0.5 µg/mL (≈ 0.428 µM) in data set [2] (Strain 3). Besides, the MIC90 in data set [2] (Strain 4) is 0.5 µg/mL (≈ 0.428 µM); in [2] (Strain 5) it was 0.5 µg/mL (≈ 0.428 µM); against pBR322 in DH5α, 0.5 µg/mL (≈ 0.428 µM); in data set [3], 0.25 µg/mL (≈ 0.214 µM); against pGDP2-MCR-1 in C600, 8 µg/mL (≈ 6.84 µM); against pGDP2-MCR-1 in DH5α (text summary: strains expressing mcr-1 (DH5α and C600)), 8 µg/mL (≈ 6.84 µM). In the data set with pBR322 in C600, this compound displayed an MIC90 of 1 µg/mL (≈ 0.855 µM). Besides, the “resistance of OmpC and OmpF knockouts” value in the data set on E. coli ΔompC, ΔompF is listed as “not resistant”. Also, in the data set on Yersinia pestis, the “susceptibility of Yersinia pestis after LPS modification with 4-amino-4-deoxy-L-arabinose” value was “blocked”. For the same compound, the “resistance of ΔpldA strain compared with WT A. baylyi ADP1” value in the data set with A. baylyi ADP1 ΔpldA was “did not significantly demonstrate resistance”. In [4], the “loss in susceptibility of A. baumannii ΔlpxC in comparison to the wild-type strain” value is “greater than fourfold”. Moreover, the “sensitivity of the mlaA mutants in comparison to the wild type” value in data set [5] was “potentially slightly more sensitive”. In the data set with pGDP2-MCR-1 in DH5α (MIC90 ratio mcr-1 strains / parent strains), the “loss of potency against strains expressing mcr-1 versus parent” value was determined as 16 fold.
As for `CCCCCC/C=C\CCCCCCCC(=O)N[C@H](CCCN)C(=O)N[C@@H](CO)C(=O)N[C@H](C(=O)N[C@@H](C(=O)N[C@@H](C(=O)N[C@H]1C(=O)NCC(=O)N[C@@H](C(C)(O)CC)C(=O)N[C@H]([C@@H](C)CC)C(=O)N[C@@H](CCO)C(=O)N[C@@H](C)C(=O)N[C@H]([C@@H](C)CC)C(=O)N[C@@H](CCC(=O)O)C(=O)O[C@@H]1C)[C@@H](O)CN)[C@@H](O)C(=O)O)C(C)C` (stereo partly drawn) [Turnercyclamycin B] (Palmitoleoyl-[dOrn]SV[dAsp(3R-OH)][X1][d(aThr)]G[X2][d(aIle)][hSer]A[d(aIle)]E; ester 6-C), in the data set with E. coli DH5α [6], the “time of exposure to reach 32× the original MIC90” value was in the range of 8 to 14 days. In addition, in data set [5], the “change of MIC90 against AB8497 versus wild type” value is on record as “doubled” and the “change of MIC90 against AB8499 versus wild type” value was “fourfold”.
As for `CO[C@H]1/C=C/O[C@@]2(C)Oc3c(C)c(O)c4c(O)c(cc(O)c4c3C2=O)NC(=O)/C(C)=C\C=C\[C@H](C)[C@H](O)[C@@H](C)[C@@H](O)[C@@H](C)[C@H](OC(C)=O)[C@@H]1C` [Rifamycin, rifamycin], the “sensitivity of the mlaA mutants in comparison to the wild type” value in [5] is recorded as “increase in sensitivity”.
For orientation: half-life means the time in which the quantity being followed falls by half. The low end stands for fast loss, the high end for slow loss. As a reminder, the AUC(0-inf) is total exposure, with the tail of the curve extrapolated. Read a low AUC(0-inf) as low exposure. What is called AUC(0-t) is the area under the concentration-time curve up to a stated or last time point. Low readings indicate low exposure, high ones high exposure. One may read the clearance as a measure of how efficiently the substance is removed, as volume per time. Usually MRT stands for a mean duration of stay, worked out from the concentration-time curve. What is called Vd is a proportionality between amount in the body and measured concentration, not a real space. In the case of `CCCCCCCCCCCCCC(=O)N[C@H](CCCN)C(=O)N[C@@H](CO)C(=O)N[C@H](C(=O)N[C@@H](C(=O)N[C@@H](C(=O)N[C@H]1C(=O)NCC(=O)N[C@@H](C(C)(O)CC)C(=O)N[C@H]([C@@H](C)CC)C(=O)N[C@@H](CCO)C(=O)N[C@@H](C)C(=O)N[C@H]([C@@H](C)CC)C(=O)N[C@@H](CCC(=O)O)C(=O)O[C@@H]1C)[C@@H](O)CN)[C@@H](O)C(=O)O)C(C)C` (stereo partly drawn) [Turnercyclamycin A] (Myristoyl-[dOrn]SV[dAsp(3R-OH)][X1][d(aThr)]G[X2][d(aIle)][hSer]A[d(aIle)]E; ester 6-C), the “sensitivity of turnercyclamycin B-resistant strains compared with wild type” value in [2] (Table 2, Fig. S3) is recorded as “more sensitive”. In addition, in the data set with E. coli DH5α [6] (daily passaging at sub-MIC for 63 d), the “resistance reached by serial passaging (× original MIC90)” value is on record as 8 ×. The “time of exposure to reach 32× the original MIC90” value in the data set on E. coli DH5α [6] is above 63 days. Besides, in “Pharmacokinetics in mice” (mice, non-compartmental analysis), the AUC/D was 58080 kg·ng·h/mL/mg. In “Pharmacokinetics in mice” (BALB/c, mouse, ALB/c female mice, non-compartmental analysis (WinNonlin)), the half-life is 4.35 h. In the data set “Pharmacokinetics in mice” (setting [7]), this compound yielded a total exposure AUC(0-inf) of 290 µg·h/mL, an AUC(0-t) of 285 µg·h/mL and a C0 of 33700 ng/mL. In addition, the clearance in the data set “Pharmacokinetics in mice” (female, BALB/c, mouse, mice, non-compartmental analysis, read-out: CL (clearance rate) (converted)) was 0.29 mL/min/kg. In addition, the MRT in “Pharmacokinetics in mice” (female, BALB/c, mouse, mice, non-compartmental analysis, read-out: MRT (mean residence time)) was found to be 5.83 h. Moreover, the volume of distribution (Vd) in the data set “Pharmacokinetics in mice” (female, BALB/c, mouse, mice, non-compartmental analysis, read-out: VSS (Vd at steady state)) was determined as 0.1 L/kg. In addition, in data set [4], the “loss in susceptibility of A. baumannii ΔlpxC in comparison to the wild-type strain” value is given as “greater than fourfold”. In addition, in [5], the “change of MIC90 against AB8497 versus wild type” value is listed as “retained wild-type potency” and the “change of MIC90 against AB8499 versus wild type” value is reported as “retained wild-type potency”.
